# In patent US8362000B2, “Azetidinyl diamides as monoacylglycerol lipase inhibitors” (Janssen Pharmaceutica NV, priority 2009, dated 2013):
# Where a chain is given by its changes, count along the chain named. Like-named read-outs stand apart in the source and are kept apart here.
# Experiments:
# MGL = biological target: T1, MGL (Rattus norvegicus, UniProt Q8R431); experiment: 2-AG accumulation assay in rat brain homogenate; assay type: biochemical; conditions: rat brain homogenate; compound 1 μM; 2-AG accumulation as percent of vehicle; read-out: Rat Brain 2AG % VehCntrl (%) @ 1 μM
# T1 construct: one g rat brain was homogenized using a Polytron homogenizer; from tissue; host or cells: rat brain homogenate
# T1 sequence (Q8R431 1-303): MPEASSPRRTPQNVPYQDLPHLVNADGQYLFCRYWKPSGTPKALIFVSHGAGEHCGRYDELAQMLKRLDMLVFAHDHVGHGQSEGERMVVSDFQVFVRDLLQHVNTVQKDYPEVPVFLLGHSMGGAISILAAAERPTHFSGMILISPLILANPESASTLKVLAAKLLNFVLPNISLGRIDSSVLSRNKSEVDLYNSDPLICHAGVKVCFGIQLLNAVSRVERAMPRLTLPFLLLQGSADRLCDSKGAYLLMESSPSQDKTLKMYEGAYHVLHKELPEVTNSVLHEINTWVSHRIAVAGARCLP
# [1] = biological target: T2, purified wild type MGL (wt-MGLL 6H-11-313) (Homo sapiens, UniProt Q99685)
# T2 sequence (Q99685 1-303): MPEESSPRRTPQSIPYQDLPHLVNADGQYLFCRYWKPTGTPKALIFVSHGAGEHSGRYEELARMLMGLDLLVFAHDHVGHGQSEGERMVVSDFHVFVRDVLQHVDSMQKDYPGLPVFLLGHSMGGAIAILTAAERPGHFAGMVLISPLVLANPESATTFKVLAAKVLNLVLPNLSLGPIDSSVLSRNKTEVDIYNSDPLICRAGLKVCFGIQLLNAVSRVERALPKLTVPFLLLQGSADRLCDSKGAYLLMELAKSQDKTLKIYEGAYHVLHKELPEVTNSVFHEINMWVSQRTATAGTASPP
# mutant MGL = biological target: T3, mutant MGL (Homo sapiens, UniProt Q99685, L169S/L176S); experiment: MGL ThermoFluor assay - mutant; assay type: binding
# T3 sequence (Q99685 1-303 L169S/L176S): T2 sequence (Q99685 1-303) with L169S, L176S
# [2] = ThermoFluor concentration-response, read-out: MGL mutant ThermoFluor Kd
# [3] = ThermoFluor, compound concentration measured by qNMR, read-out: MGL mutant ThermoFluor qKd (using qNMR conc.)
# [4] = ThermoFluor, compound concentration measured by qNMR, read-out: MGL mutant ThermoFluor qKd (μM) (using qNMR conc.)
# [5] = compound concentration measured by qNMR, read-out: MGL mutant ThermoFluor qKd (using qNMR conc.)
Structure (SMILES),"2-AG accumulation, % of vehicle control at 1 µM (MGL)",IC50 [1],Kd (mutant MGL; [2]),Kd (mutant MGL; [3]),Kd (mutant MGL; [4]),Kd (mutant MGL; [5])
O=C(c1ccc2c(c1)C1C=CCC1C(c1cccc(Cl)c1)N2)N1CC(N2CCN(C(=O)c3nccs3)CC2)C1 (stereo not drawn) [Cpd 667],856%,14 nM,0.013 µM,,,
"Cc1c(C(=O)N2CC(N3CCN(C(=O)c4cscn4)CC3)C2)sc2ccc(-c3ccccc3)cc12 [Cpd 1058, 1-{1-[(3-Methyl-5-phenyl-1-benzothiophen-2-yl)carbonyl]azetidin-3-yl}-4-(1,3-thiazol-4-ylcarbonyl)piperazine]",590%,6 nM,0.007 µM,,,
O=C(Nc1ccc(C(=O)N2CC(N3CCN(C(=O)c4nccs4)CC3)C2)cc1)c1cc(F)ccc1Cl [Cpd 702],848%,303 nM,,0.207 µM,,
O=C(c1ccc(Oc2cc(C(F)(F)F)ccc2F)nc1)N1CC(N2CCN(C(=O)c3nccs3)CC2)C1 [Cpd 878],288%,< 5 nM,0.088 µM,,,
"O=C(c1ccc(-c2ccccc2)c(F)c1)N1CC(N2CCN(C(=O)c3nccs3)CC2)C1 [Cpd 166, 1-{1-[(2-Fluorobiphenyl-4-yl)carbonyl]azetidin-3-yl}-4-(1,3-thiazol-2-ylcarbonyl)piperazine]",509%,< 5 nM,0.005 µM,,,
O=C(c1ccccc1)N1CCN(C2CN(C(=O)c3ccc4c(ccn4-c4cc(F)c(F)c(F)c4)c3)C2)CC1 [Cpd 569],198%,21 nM,,,0.059 µM,
O=C(c1ccc[nH]1)N1CCN(C2CN(C(=O)c3nn(-c4ccc(Cl)cc4Cl)c4c3CSC/C4=C\c3ccc(F)cc3)C2)CC1 [Cpd 1024],281%,69 nM,,,,0.135 µM
Cn1cc(Cc2ccc(F)cc2)c2ccc(C(=O)N3CC(N4CCN(C(=O)c5cscn5)CC4)C3)cc21 [Cpd 1027],785%,14 nM,,,,0.012 µM

# Continued, values first:
"2-AG accumulation, % of vehicle control at 1 µM (MGL)",IC50 [1],Kd (mutant MGL; [2]),Kd (mutant MGL; [3]),Kd (mutant MGL; [4]),Kd (mutant MGL; [5]),Structure (SMILES)
334%,13 nM,0.199 µM,,,,"O=C(c1cc(F)cc(-c2ccccc2)c1)N1CC(N2CCN(C(=O)c3nccs3)CC2)C1 [Cpd 1104, 1-{1-[(5-Fluorobiphenyl-3-yl)carbonyl]azetidin-3-yl}-4-(1,3-thiazol-2-ylcarbonyl)piperazine]"
545%,< 5 nM,,,0.018 µM,,Cc1cc(C(=O)N2CC(N3CCN(C(=O)c4nccs4)CC3)C2)sc1-c1ccc(F)cc1 [Cpd 1353]
780%,53 nM,0.067 µM,,,,COc1ccc(C(=O)N2CC(N3CCN(C(=O)c4nccs4)CC3)C2)cc1-c1ccccc1 [Cpd 1168]
838%,14 nM,,0.003 µM,,,"COc1cc(-n2ccc3cc(C(=O)N4CC(N5CCN(C(=O)c6nccs6)CC5)C4)ccc32)ccn1 [Cpd 1107, 1-(2-Methoxypyridin-4-yl)-5-({3-[4-(1,3-thiazol-2-ylcarbonyl)piperazin-1-yl]azetidin-1-yl}carbonyl)-1H-indole]"
909%,< 5 nM,0.002 µM,,,,"O=C(c1ccc2c(c1)c(Cl)cn2-c1ccc(F)cc1)N1CC(N2CCN(C(=O)c3nccs3)CC2)C1 [Cpd 1365, 3-Chloro-1-(4-fluorophenyl)-5-({3-[4-(1,3-thiazol-2-ylcarbonyl)piperazin-1-yl]azetidin-1-yl}carbonyl)-1H-indole]"
667%,8 nM,,,0.02 µM,,O=C(c1ccc2nc(-c3ccc(F)c(F)c3)oc2c1)N1CC(N2CCN(C(=O)c3nccs3)CC2)C1 [Cpd 1077]
996%,73 nM,0.005 µM,,,,O=C(c1ccc(-c2nc(-c3ccccc3)c(-c3ccccc3)[nH]2)cc1)N1CC(N2CCN(C(=O)c3nccs3)CC2)C1 [Cpd 1179]
